Results on 3 molecules are retold here after patent US20250073180A1, “COMPOSITIONS COMPRISING NON-RACEMIC MIXTURES OF R- AND S-1,3-BUTANEDIOL AND USES THEREOF” (priority 2022, published 2025).

The conditions of data set [1]: ECHA registration dossiers; cited from earlier work.
Data set [2] has as its system dogs. Conditions: dietary levels of 0.5, 1.0 and 3.0% for two years; cited from earlier work.
The test system of data set [3] is rats. The settings on record: dietary levels of 1.0, 3.0 and 10% for two years; cited from earlier work.
Data set [4] deals with human volunteers. Conditions: bolus doses of 0.5 g/kg bw or 0.7 g/kg bw; cited from earlier work.
For data set [5] the following is noted: 25 g/day for 28 consecutive days; cited from earlier work.
In data set [6] the test system is human subjects. Kind of data set: Biphasic Alcohol Effects Scale (BAES) questionnaire, acute pilot consumer study. In kind it is in vivo. The settings on record: 60 minutes following consumption of 20 g in a beverage; n=3 per group. As to the method:
(§1) Two scales were utilized: subjective effects with Biphasic Alcohol Effects Scale (BAES), a validated tool to measure the effects of drinking alcohol (Martin, C. S., et al. 1993. Alcoholism, Clinical and Experimental Research 17 (1): 140-46), and GI Tolerance with a Modified Beverage Tolerability Questionnaire (m-BTQ; Chen., 0. T., et al. 2021. Nutrients 13 (6): 2066). Participants were asked to fast for at least 2 hours before consuming the product, and complete the m-BTQ and BAES at 60 minutes following the consumption of the product.
(§2) The study population was 6 individuals between 25-40 years old. Questionnaires for the m-BTQ and BAES are provided below in Tables 1 and 2.
(§3) The six participants were between 25-40 years old, were 100% Caucasian and all (100%) identified as male.

For data set [7], the system named is human subjects. Kind of data set: Modified Beverage Tolerability Questionnaire (m-BTQ), acute pilot consumer study. In kind it is in vivo. As to the method:
as §1, §2, §3

Each structure is given as a SMILES string.

Regarding `CC(O)CCO` (stereo not drawn) [1,3-butanediol], the “Acute oral, inhalation and dermal toxicity” value in data set [1] was “low”. The “Adverse effects attributable to ingestion” value in data set [2] and in data set [3] was “no adverse effects attributable to the ingestion” throughout. Further, the “Side effects of bolus doses” value in data set [4] is “nausea, euphoria and dizziness”.
In the case of `CCCCCC(=O)OCC[C@@H](C)OC(=O)CCCCC` [BH-BD, bis-hexanoyl (R)-1,3-butanediol], the “Side effects and adverse events” value in data set [5] was “only mild side effects and no adverse events”.
As to `C[C@@H](O)CCO` [R-1,3-butanediol], in data set [6], the “Mean BAES-SED Composite Score” value was 22.3 and the “Mean BAES-STIM Composite Score” value was found to be 41.7. In addition, the “Mean Composite Tolerability Score (m-BTQ)” value in data set [7] (60 minutes following consumption of 20 g in a beverage, fasted at least 2 hours, n=3 per group) turned out to be 8. Further, the “Tolerability (in words)” value in data set [7] (acute use, 20 g beverage, all participants) is “well tolerated by all participants”.
